Test results from US20260085101A1, “NOVEL PLATELET DERIVED GROWTH FACTOR PEPTIDE MIMETIC” (THE UNIVERSITY OF SYDNEY, priority 2022, published 2026).

How the values were obtained:
Type in all cases: cell-based
PDGF receptor = molecular target: T1, PDGF receptor (Mus musculus, UniProt P05622); assay: Western blot for phosphorylation of ERK in C2C12 cells (PDGF receptor activation); settings: for phosphorylation of ERK (pERK): 10 ng/ml PDGF, 1 μg/ml peptide, vs no treatment and AG1296+PDGF−AB controls
T1 construct: Phosphorylation of ERK following treatment of C2C12 Cells with PDGF and JC5; endogenous in cells; host or cells: C2C12 mouse myoblasts
T1 sequence (P05622 32-1098): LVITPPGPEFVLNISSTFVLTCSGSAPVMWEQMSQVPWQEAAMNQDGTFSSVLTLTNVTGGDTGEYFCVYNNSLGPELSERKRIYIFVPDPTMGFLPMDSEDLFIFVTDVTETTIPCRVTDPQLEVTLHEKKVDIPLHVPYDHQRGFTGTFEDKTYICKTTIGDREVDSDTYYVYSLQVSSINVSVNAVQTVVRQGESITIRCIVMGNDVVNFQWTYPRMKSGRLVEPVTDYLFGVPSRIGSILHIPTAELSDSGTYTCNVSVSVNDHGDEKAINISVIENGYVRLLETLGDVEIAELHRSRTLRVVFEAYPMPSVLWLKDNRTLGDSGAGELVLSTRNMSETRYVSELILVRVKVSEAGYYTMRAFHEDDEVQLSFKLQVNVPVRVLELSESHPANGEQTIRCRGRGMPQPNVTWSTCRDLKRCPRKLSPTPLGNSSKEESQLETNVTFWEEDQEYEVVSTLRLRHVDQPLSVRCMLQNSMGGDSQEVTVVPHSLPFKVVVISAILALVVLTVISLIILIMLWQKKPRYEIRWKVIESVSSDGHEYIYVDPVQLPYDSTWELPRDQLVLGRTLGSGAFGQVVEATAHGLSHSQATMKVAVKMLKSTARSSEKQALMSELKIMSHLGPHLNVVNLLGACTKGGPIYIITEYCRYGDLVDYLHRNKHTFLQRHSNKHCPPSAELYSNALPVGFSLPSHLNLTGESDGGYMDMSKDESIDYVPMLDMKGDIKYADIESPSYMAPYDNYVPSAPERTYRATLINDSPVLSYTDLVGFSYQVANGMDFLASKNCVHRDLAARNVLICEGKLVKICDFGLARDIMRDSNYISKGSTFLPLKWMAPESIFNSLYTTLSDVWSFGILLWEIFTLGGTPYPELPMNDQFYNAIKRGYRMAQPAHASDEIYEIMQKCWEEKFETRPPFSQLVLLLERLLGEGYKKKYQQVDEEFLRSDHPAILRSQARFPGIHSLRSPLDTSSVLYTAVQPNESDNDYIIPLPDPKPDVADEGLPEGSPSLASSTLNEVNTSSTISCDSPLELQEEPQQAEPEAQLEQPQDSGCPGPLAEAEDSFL
Method: FIG. 5. Phosphorylation of ERK following treatment of C2C12 Cells with PDGF and JC5. Western blots for total (ERK) and phosphorylated ERK (pERK) at 42 and 44 kDa show an increase in phosphorylation following treatment with 10 ng/ml PDGF−BB and 1 μg/ml of JC5. FIG. 6. Phosphorylation of ERK following treatment of C2C12 Cells with PDGF and JC5a. Western blots for total (ERK) and phosphorylated ERK (pERK) at 42 and 44 kDa show an increase in phosphorylation 10 minutes post treatment with 10 ng/ml PDGF−BB and 1 μg/ml of novel mimetic peptide JC5a. JC5a maintained this increased phosphorylation of ERK at 30 minutes post treatment. PDGF receptor activation takes place via autophosphorylation of tyrosine […] residues at key sites throughout the intracellular domain. Autophosphorylation engages different signaling pathways, including ERK (MAPK) which participates in proliferation, cell survival, angiogenesis, and chemotactic activity of cells. Phosphorylation of ERK indicates successful activation of the PDGF receptor.

C2C12 mouse myoblasts = assay: Scratch migration (chemotaxis) assay on C2C12 cells; settings: for migration of cells across the scratch: 24 hours at 37° C., 10 ng/ml PDGF, 1 μg/ml peptides, mean (±SD); for increase in migration compared to the negative control (Mean Diff) / increase in migration compared to the no treatment control (Mean Diff.): 24 hours; for increase in migration compared to the negative control (Mean Diff): vs AG1296+PDGF−AB negative control; for increase in migration compared to the no treatment control (Mean Diff.): vs no treatment control
Method: FIG. 2. Migration of C2C12 Mouse […] Cells Treated with PDGF and peptides JC5 and JC5a. C2C12 mouse fibroblast cells migrate across the scratch over 24 hours. Cells were treated with 10 ng/ml PDGF−AB (n=6), PDGF−BB (n=6), and 1 μg/ml of novel PDGF mimetic JC5 (n=6) and JC5a (n=3). […] There was also no statistically significant difference between the PDGF mimetic peptides and PDGF−AB and −BB positive controls. Error bars represent ±SD. The function of Compounds Ia (also referred to herein as JC5) and Ib (also referred to herein as JC5a) has been tested in vitro on the continuous cell line, C2C12 mouse myoblasts. In these in vitro assays recombinant PDGF−AB and −BB have been used as positive controls along with a serum starved no treatment control and the PDGF receptor inhibitor AG1296 co-treated with PDGF−AB as a negative control. The in vitro assays were designed to assess the major known functions of PDGF whilst also considering functions that are relevant to its in vivo applications. These functions were chemotaxis, collagen contraction, vascular tube formation and activation of the PDGF receptors via phosphorylation of Akt and Erk. Chemotaxis was assessed by making a scratch through a 2D culture of C2C12 cells following treatment with the four controls and the peptides JC5 and JC5a. They were then incubated for 24 hours at 37° C. Migration of the cells across the scratch at the conclusion of the incubation was measured and compared to the relevant controls described above. PDGF is a well-established mediator of chemotaxis and is expected to increase migration of the cells across the scratch over the course of 24 hours post treatment.

[1] = test system: primary human coronary artery endothelial cells (HCAECs); assay: Vascular tube forming assay on Geltrex; settings: 24 hours; for tube length: 50 ng/ml PDGF, 5 μg/ml JC5, 10 μM AG1296, mean (±SD); for increased tube length compared to the negative control (Mean Diff.): vs AG1296+PDGF−AB (307.7 μm); for increased tube length compared to the no treatment control (Mean Diff.): vs no treatment control (305 μm)
Method: FIG. 4. Tube formation of Human Coronary Artery Endothelial Cells Treated with PDGF and PDGF Mimetic Peptide JC5. Human coronary artery endothelial cells treated with 50 ng/ml of PDGF−AB and PDGF−BB produced longer tubes than untreated cells and cells treated with the PDGF receptor inhibitor AG1296+PDGF−AB. […] Error bars represent ±SD, n=3/group.
PDGF has a well-established role in angiogenesis in vivo. To simulate this function in vitro a vascular tube forming assay on primary human coronary artery endothelial cells (HCAECs) was carried out. Cells were seeded on top of 3D growth factor reduced Geltrex basement membrane extract and incubated for 24 hours following treatment with the PDGF−AB, PDGF-BB, no treatment control, AG1296+PDGF−AB negative control, and peptides JC5 and JC5a. Over the course of 24 hours the cells form tubes throughout the gel. PDGF is reported to facilitate tube formation of endothelial cells in in vitro 3D assays.
Cells treated with 50 ng/ml of PDGF−AB, PDGF-BB, and 5 μg/ml of JC5 produced longer more uniform tubes than untreated cells and cells treated with the negative control 10 μM PDGF receptor inhibitor AG1296 co-treated with 50 ng/ml PDGF−AB (FIG. 4). The positive controls PDGF−AB and PDGF−BB produced tubes that were 560.7 μm (±53.93) and 616.3 μm (±39.07), respectively. […] The no treatment control and AG1296+PDGF−AB negative control produced tubes that were 305 μm and 307.7 μm, respectively. […] In summary, JC5 has similar vascular tube forming ability to recombinant human PDGF−AB and PDGF-BB.

phosphorylation of ERK (pERK) at 30 minutes post treatment (PDGF receptor; 1 μg/ml JC5a, 30 minutes)	Molecule	phosphorylation of ERK (pERK) (PDGF receptor)	migration of cells across the scratch (C2C12 mouse myoblasts) [%]	increase in migration compared to the negative control (Mean Diff) (C2C12 mouse myoblasts) [%]	increase in migration compared to the no treatment control (Mean Diff.) (C2C12 mouse myoblasts) [%]	tube length [1] [μm]	increased tube length compared to the negative control (Mean Diff.) [1] [μm]	increased tube length compared to the no treatment control (Mean Diff.) [1] [μm]
	PDGF Loop III dimer HSA (CVRKIEIVRKK)2(Peg3)2EYEK(Palm)EYE-C′ [JC5]	phosphorylation of ERK (pERK) can be seen	68.28	51.71	47.96	591.3	283.7	286.3
preserved phosphorylation of ERK (pERK)	CCCCCCCCCCCCCCCC(=O)NCCCC[C@H](NC(=O)[C@H](CCC(=O)O)NC(=O)[C@H](Cc1ccc(O)cc1)NC(=O)[C@@H](CCC(=O)O)NC(=O)CCOCCOCCOCCNC(=O)CCOCCOCCOCCNC(=O)[C@@H](CCCCN)NC(=O)[C@@H](CCCCN)NC(=O)[C@@H](CCCNC(=N)N)NC(=O)[C@@H](NC(=O)[C@@H](NC(=O)[C@H](CCC(=O)O)NC(=O)[C@@H](NC(=O)[C@H](CCCCN)NC(=O)[C@@H](CCCNC(=N)N)NC(=O)[C@H](NC(=O)[C@H](N)CSSC[C@@H](N)C(=O)N[C@@H](C(=O)N[C@H](CCCNC(=N)N)C(=O)N[C@@H](CCCCN)C(=O)N[C@H](C(=O)N[C@@H](CCC(=O)O)C(=O)N[C@H](C(=O)N[C@H](C(=O)N[C@H](CCCNC(=N)N)C(=O)N[C@H](CCCCN)C(=O)N[C@H](CCCCN)C(=O)NCCOCCOCCOCCC(=O)NCCOCCOCCOCCC(=O)N[C@H](CCC(=O)O)C(=O)N[C@@H](Cc1ccc(O)cc1)C(=O)N[C@@H](CCC(=O)O)C(=O)N[C@@H](CCCCNC(=O)CCCCCCCCCCCCCCC)C(=O)N[C@@H](CCC(=O)O)C(=O)N[C@@H](Cc1ccc(O)cc1)C(=O)N[C@@H](CCC(=O)O)C(N)=O)C(C)C)[C@H](C)CC)[C@@H](C)CC)C(C)C)C(C)C)[C@@H](C)CC)[C@H](C)CC)C(C)C)C(=O)N[C@@H](CCC(=O)O)C(=O)N[C@@H](Cc1ccc(O)cc1)C(=O)N[C@@H](CCC(=O)O)C(N)=O [JC5a, PDGF Loop III dimer USA dimer (CVRKIEIVRKK)2(Peg3)2(EYEK(Palm)EYE)2-C′]	phosphorylation of ERK (pERK) can be seen	79.88	62.71	59.56			
	PDGF−AB: recombinant human PDGF−AB, AB heterodimer of recombinant PDGF, positive control	pERK is induced by PDGF−BB but not PDGF−AB				560.7	253	255.7
